Experimental findings from patent US20240368096A1 (Enanta Pharmaceuticals, Inc., priority 2022, published 2024) are described below.

The subject of this assay is HBV. Put plainly: HBV infection in HepG2-NTCP cells (HBeAg AlphaLISA in supernatants). It counts as cell-based. The following applies: Hepatitis B virus, 192 h; HBV infection of HepG2-NTCP cells; HBeAg in supernatants at day 8 post infection; read-out: Cellular EC50. In outline:
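HepG2-NTCP A3 cells were pre-incubated 2 h with 3-fold serially diluted compounds, then infected with HBV at 2000 GE/cell with 4% PEG (0.5% DMSO final). After washing on day 1, cells stayed in 2.5% DMSO medium; supernatant HBeAg measured by AlphaLISA on day 8, EC50 versus DMSO controls.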
In general terms: Alpha assays give light when donor and acceptor beads are brought close together.
The term EC50 denotes the concentration giving half of the maximal effect. For `CCCCOc1cc2c(cc1-c1ccc(F)c(C(=O)O)c1)S(=O)(=O)N(C)[C@H](C1CCCCC1)CN2c1ccccc1` [Example 350], the EC50 was below 0.1 µM.

For the molecule `CN1[C@H](C2CCCCC2)CN(c2cncc(C(F)(F)F)c2)c2cc(Cl)c(-c3ccc(F)c(C(=O)O)c3)cc2S1(=O)=O` [Example 282], the EC50 fell in the range of 0.1 to 1 µM.

Regarding `CC(C)C[C@@H]1CN(c2ccccc2)c2cc(Cl)c(-c3ccc(C(F)(F)F)c(C(=O)O)c3)cc2S(=O)(=O)N1C` [Example 186], the EC50 was below 0.1 µM. Then `CC(C)C[C@@H]1CN(c2ccccc2)c2cc(OCc3cccnc3)c(-c3ccc(F)c(C(=O)O)c3)cc2S(=O)(=O)N1C` [Example 456], with 0.1 to 1 µM; and `CN1[C@H](C2CCCCC2)CN(c2ccccc2)c2cc(Cl)c(-c3cc4c(c(C(=O)O)c3)OCO4)cc2S1(=O)=O` [Example 153, (R)-6-(7-chloro-3-cyclohexyl-2-methyl-1,1-dioxido-5-phenyl-2,3,4,5-tetrahydrobenzo[f][1,2,5]thiadiazepin-8-yl)benzo[d][1,3]dioxole-4-carboxylic acid], with below 0.1 µM. The figure for `CSc1cc2c(cc1-c1cccc(C(=O)O)c1)S(=O)(=O)N1Cc3ccccc3C1CN2c1ccccc1` (centres unmarked) [Example 22] is above 1 µM; for `CSc1cc2c(cc1-c1cccc(C(=O)O)c1)S(=O)(=O)N1C[C@@H](C(F)(F)F)C[C@H]1CN2c1ccccc1` [Example 24] it is above 1 µM.

As for `CC(C)C[C@@H]1CN(c2ccccc2)c2cc(Nc3ccccc3F)c(-c3ccc(Cl)c(C(=O)O)c3)cc2S(=O)(=O)N1C` [Example 546], the concentration for a half-maximal effect (EC50) is 0.1 to 1 µM.

As to `CN1[C@@H](CC2CCCCC2)CN(c2ccccc2)c2cc(Cl)c(-c3cccc(C(=O)O)c3)cc2S1(=O)=O` [Example 43], the half-maximal effective concentration (EC50) is above 1 µM. As to `CCOc1cc2c(cc1-c1ccc(F)c(C(=O)O)c1)S(=O)(=O)N(C)[C@H](C1CCCCC1)CN2c1ccccc1` [Example 349], the EC50 is below 0.1 µM. For `CN1[C@H](C2CCCCC2)CN(c2cccc(C#N)c2)c2cc(Cl)c(-c3ccc(F)c(C(=O)O)c3)cc2S1(=O)=O` [Example 291], the EC50 is below 0.1 µM. The figure for `CCCC[C@H]1CN(c2ccccc2)c2cc(Nc3ccccc3F)c(-c3cccc(C(=O)O)c3)cc2S(=O)(=O)N1C` [Example 539] is above 1 µM; for `Cc1cc(-c2cc3c(cc2OC2CCC2)N(c2ccccc2)C[C@@H](C2CCCCC2)N(C)S3(=O)=O)sc1C(=O)O` [Example 513, (R)-5-(7-cyclobutoxy-3-cyclohexyl-2-methyl-1,1-dioxido-5-phenyl-2,3,4,5-tetrahydrobenzo[f][1,2,5]thiadiazepin-8-yl)-3-methylthiophene-2-carboxylic acid] it is below 0.1 µM. As for `COC1CCN(c2cc3c(cc2-c2ccc(Cl)c(C(=O)O)c2)S(=O)(=O)N(C)[C@H](C2CCCCC2)CN3c2ccccc2)CC1` [Example 559], the EC50 was 0.1 to 1 µM. For `CC(=O)NS(=O)(=O)c1cc(-c2cc3c(cc2Cl)N(c2ccccc2)C[C@@H](C2CCCCC2)N(C)S3(=O)=O)ccc1Cl` [Example 224], the EC50 is below 0.1 µM. With `CC(C)C[C@@H]1CN(c2ccccc2)c2cc(OCc3ccccn3)c(-c3ccc(F)c(C(=O)O)c3)cc2S(=O)(=O)N1C` [Example 459], the 50% effective concentration (EC50) was below 0.1 µM. The figure for `CCCCCCCC[C@@H]1CN(c2ccccc2)c2cc(Cl)c(-c3ccc(C(=O)O)s3)cc2S(=O)(=O)N1C` [Example 84] is above 1 µM. Then `CC(C)C[C@@H]1CN(c2ccccc2)c2cc(Oc3ccccc3Cl)c(-c3ccc(F)c(C(=O)O)c3)cc2S(=O)(=O)N1C` [Example 431], with below 0.1 µM; and `O=C(O)c1cncc(-c2cc3c(cc2F)N(c2ccccc2)CC2CC4(CC4)CN2S3(=O)=O)c1` (centres unmarked) [Example 6], with above 1 µM. On to `CC(C)CC1CN(c2ccccc2)c2cc(Cl)c(-c3cccc(C(=O)O)c3)cc2S(=O)(=O)N1C` (centres unmarked) [Example 33], for which the EC50 fell in the range of 0.1 to 1 µM. Then `CN1[C@H](C2CCCCC2)CN(c2ccccc2)c2cc(OC3CC4(CCOCC4)C3)c(-c3ccc(F)c(C(=O)O)c3)cc2S1(=O)=O` [Example 383], with 0.1 to 1 µM; and `CC(C)C[C@@H]1CN(c2ccccc2)c2cc(Cl)c(-c3cccc(S(=O)(=O)NC(=O)c4ccccc4)c3)cc2S(=O)(=O)N1C` [Example 221], with 0.1 to 1 µM; and `CN1[C@H](C2CCCCC2)CN(c2ccccc2)c2cc(OCCOC(C)(C)C)c(-c3cc(F)c(C(=O)O)s3)cc2S1(=O)=O` [Example 495], with below 0.1 µM.

For the molecule `CCCCC[C@@H](C)Oc1cc2c(cc1-c1ccc(F)c(C(=O)O)c1)S(=O)(=O)N(C)[C@H](C1CCCCC1)CN2c1ccccc1` [Example 355], the EC50 is below 0.1 µM.

As to `CN1[C@H](C2CCCCC2)CN(c2ccccc2)c2cc(C3CCOCC3)c(-c3ccc(F)c(C(=O)O)c3)cc2S1(=O)=O` [Example 591], the EC50 was in the range of 0.1 to 1 µM. The figure for `CN1[C@H](COCc2ccccc2)CN(c2ccccc2)c2cc(Cl)c(-c3ccc(F)c(C(=O)O)c3)cc2S1(=O)=O` [Example 102] is above 1 µM; for `CC(C)CC1CN(c2ccccc2)c2cc(Cl)c(-c3cc(Cl)cc(C(=O)O)c3)cc2S(=O)(=O)N1C` (centres unmarked) [Example 37] it is 0.1 to 1 µM.

`CN1[C@H](CNC(C)(C)C)CN(c2ccccc2)c2cc(Cl)c(-c3ccc(F)c(C(=O)O)c3)cc2S1(=O)=O` [Example 114]: the EC50 was above 1 µM.

With `CN1[C@H](C2CCCCC2)CN(c2ccccc2)c2cc(Cl)c(-c3cc(C(=O)O)cs3)cc2S1(=O)=O` [Example 129, (R)-5-(7-chloro-3-cyclohexyl-2-methyl-1,1-dioxido-5-phenyl-2,3,4,5-tetrahydrobenzo[f][1,2,5]thiadiazepin-8-yl)thiophene-3-carboxylic acid], the EC50 was 0.1 to 1 µM.

Consider `CN1[C@H](C2CC2)CN(c2ccccc2)c2cc(Cl)c(-c3ccc(Cl)c(C(=O)O)c3)cc2S1(=O)=O` [Example 65], for which the EC50 was below 0.1 µM.

As for `CC(C)C[C@@H]1CN(c2ccccc2)c2cc(Oc3ccccc3F)c(-c3ccc(Cl)c(C(=O)O)c3)cc2S(=O)(=O)N1C` [Example 424], the EC50 is below 0.1 µM. Regarding `CN1[C@H](COC(C)(C)C)CN(c2ccccc2)c2cc(Cl)c(-c3ccc(F)c(C(=O)O)c3)cc2S1(=O)=O` [Example 101, (S)-5-(3-(tert-butoxymethyl)-7-chloro-2-methyl-1,1-dioxido-5-phenyl-2,3,4,5-tetrahydrobenzo[f][1,2,5]thiadiazepin-8-yl)-2-fluorobenzoic acid], the EC50 lay within 0.1 to 1 µM. Then `CC(C)C[C@@H]1CN(c2ccccc2)c2cc(OCc3cocn3)c(-c3ccc(F)c(C(=O)O)c3)cc2S(=O)(=O)N1C` [Example 462], with below 0.1 µM. Take `CC(C)C[C@@H]1CN(c2ccccc2)c2cc(Cl)c(-c3ccc(Cl)c(C(N)=O)c3)cc2S(=O)(=O)N1C` [Example 166]: the EC50 is above 1 µM. The figure for `CC(C)C[C@@H]1CN(c2ccccc2)c2cc(Oc3cccc(OC(F)(F)F)c3)c(-c3ccc(F)c(C(=O)O)c3)cc2S(=O)(=O)N1C` [Example 438] is below 0.1 µM; for `CN1[C@H](C2CCCCC2)CN(c2ccccc2)c2cc(OC3CCNCC3)c(-c3ccc(F)c(C(=O)O)c3)cc2S1(=O)=O` [Example 394, (R)-5-(3-cyclohexyl-2-methyl-1,1-dioxido-5-phenyl-7-(piperidin-4-yloxy)-2,3,4,5-tetrahydrobenzo[f][1,2,5]thiadiazepin-8-yl)-2-fluorobenzoic acid] it is above 1 µM.

With `CCOC[C@@H]1CN(c2ccccc2)c2cc(Cl)c(-c3ccc(F)c(C(=O)O)c3)cc2S(=O)(=O)N1C` [Example 93, (S)-5-(7-chloro-3-(ethoxymethyl)-2-methyl-1,1-dioxido-5-phenyl-2,3,4,5-tetrahydrobenzo[f][1,2,5]thiadiazepin-8-yl)-2-fluorobenzoic acid], the EC50 lay in the range of 0.1 to 1 µM.

As to `CC(C)C[C@@H]1CN(c2ccccc2)c2cc(OC3(C)CCCC3)c(-c3ccc(Cl)c(C(=O)O)c3)cc2S(=O)(=O)N1C` [Example 454], the EC50 is below 0.1 µM.

`O=C(O)c1cccc(-c2cc3c(cc2F)N(c2ccccc2)CC2c4ccccc4CN2S3(=O)=O)c1` (centres unmarked) [Example 3]: the EC50 is above 1 µM.

On to `CC(C)C[C@@H]1CN(C2CC2)c2cc(Oc3ccccc3F)c(-c3ccc(F)c(C(=O)O)c3)cc2S(=O)(=O)N1C` [Example 471], for which the EC50 was in the range of 0.1 to 1 µM.

For the molecule `CC(C)CS(=O)(=O)Nc1ccc(-c2cc3c(cc2Cl)N(c2ccccc2)C[C@@H](C2CCCCC2)N(C)S3(=O)=O)cc1C(=O)O` [Example 267, (R)-5-(7-chloro-3-cyclohexyl-2-methyl-1,1-dioxido-5-phenyl-2,3,4,5-tetrahydrobenzo[f][1,2,5]thiadiazepin-8-yl)-2-((2-methylpropyl)sulfonamido)benzoic acid], the half-maximal effective concentration (EC50) was below 0.1 µM. Take `CC(C)[C@@H]1CN(c2ccccc2)c2cc(Cl)c(-c3cc(F)c(C(=O)O)s3)cc2S(=O)(=O)N1C` [Example 120]: the EC50 is below 0.1 µM.

In the case of `CN1[C@H](C2CCCCC2)CN(c2ccc(C#N)cc2)c2cc(Cl)c(-c3ccc(F)c(C(=O)O)c3)cc2S1(=O)=O` [Example 290], the EC50 lay within 0.1 to 1 µM. As for `CN1[C@H](C2CCCCC2)CN(c2ccccc2)c2cc(F)c(-c3ccc(F)c(C(=O)O)c3)cc2S1(=O)=O` [Example 176], the half-maximal effective concentration (EC50) was below 0.1 µM. The figure for `CC(C)C[C@@H]1CN(c2ccccc2)c2cc(OC3CCN(C)CC3)c(-c3ccc(F)c(C(=O)O)c3)cc2S(=O)(=O)N1C` [Example 448] is above 1 µM; for `CN1[C@H](C2CCCCC2)CN(c2ccccc2)c2cc(OC[C@@H]3CCCN(C(=O)OC(C)(C)C)C3)c(-c3ccc(F)c(C(=O)O)c3)cc2S1(=O)=O` [Example 369] it is 0.1 to 1 µM. Then `CCCC[C@@H]1CN(c2ccccc2)c2cc(-n3cncn3)c(-c3ccc(F)c(C(=O)O)c3)cc2S(=O)(=O)N1C` [Example 526], with below 0.1 µM.
